Laboratory results published in patent US9399649B2, “Compounds for treating spinal muscular atrophy” (PTC Therapeutics Inc., priority 2012, dated 2016).

Tests used:
[1] = system: full length and Δ7 SMN2 mRNA; assay: Endogenous SMN2 mRNA end-point semi-quantitative RT-PCR splicing assay in animal tissues; assay type: in vivo; details: C/C-allele SMA mice, brain and muscle, oral BID for 10 days, FIG. 7
Description: The endpoint reverse transcription-PCR (RT-PCR) splicing assay is used to quantify the levels of the full length and Δ7 SMN2 mRNA in tissues from mice treated with test compound.
C/C-allele SMA mice are treated by oral gavage BID for 10 days with test compounds in 0.5% HPMC and 0.1% Tween-80. Tissue samples are collected and snap frozen for RNA purification.
Tissue samples (20-40 mg) are homogenized in QIAzol Lysis Reagent for 2 minutes at 20 Hz in the TissueLyser II using one stainless steel bead. After addition of chloroform, the homogenate is separated into aqueous and organic phases by centrifugation. RNA partitioned to the upper, aqueous phase is extracted and ethanol is added to provide appropriate binding conditions. The sample is then applied to the RNeasy spin column from the RNeasy Mini Kit, where total RNA binds to the membrane. The RNA is eluted in RNase-free water then stored at −20° C.
SMN2 spliced products are identified using the following amplification primers in Table 8. These primers hybridize to a nucleotide sequence in exon 6 (SMN Forward D, SEQ ID NO. 13) (nucleotide 22 to nucleotide 46) and exon 8 (SMN Reverse C, SEQ ID NO. 12), common to human SMN1 and SMN2 mRNA. […]

Smn protein = Smn protein in tissues of neonatal Δ7 SMA mice; assay type: in vivo; details: neonatal SMA Δ7 homozygous knockout mice, IP QD for 7 days (PND 3 to PND 9), brain, spinal cord, muscle, FIG. 12
Description: The tissue samples in Safe-Lock tubes are weighed and the volume of RIPA buffer containing the protease inhibitor cocktail is added based on the weight to volume ratios for each type of tissue: Brain (50 mgmL), Muscle (50 mgmL) and Spinal Cord (25 mgmL).
Tissues are homogenized using the TissueLyzer by bead milling. 5 mm stainless steel beads are added to the sample and shaken vigorously for 5 minutes at 30 Hz in the TissueLyzer. The samples are then centrifuged for 20 minutes at 14,000×g in a microcentrifuge and the homogenates transferred to the PCR plate. The homogenates are diluted in RIPA buffer to approximately 1 mgmL for HTRF and approximately 0.5 mgmL for total protein measurement using the BCA protein assay. […] Fluorescence for each well of the plate at 665 nm and 620 nm is measured on an EnVision multilabel plate reader (Perkin-Elmer). The total protein in the tissue homogenate is measured using the BCA assay according to the manufacturer's protocol.
The normalized fluorescence signal is calculated for each sample, Blank and vehicle control well by dividing the signal at 665 nm by the signal at 620 nm. Normalizing the signal accounts for possible fluorescence quenching due to the matrix effect of the tissue homogenate. […] The ΔF value for each tissue sample well is divided by the total protein quantity (determined using the BCA assay) for that tissue sample. […]

For Cc1cn2cc(-c3cc4ccc(N5CCN(C)CC5)cc4c(=O)o3)nc2c(C)n1 [Cpd 65, 3-(6,8-dimethylimidazo[1,2-a]pyrazin-2-yl)-7-(4-methylpiperazin-1-yl)-1H-isochromen-1-one], which “SMN2 FL mRNA in tissues (gel band)” value [1] is on record?
Its value is “progressively more SMN2 FL mRNA”.

What about the “SMN2 Δ7 mRNA in tissues (gel band)” value [1] of the same molecule?
The value was “less SMN2 Δ7 mRNA”.

And the “total protein normalized Smn level in tissues” value (Smn protein)?
The value was “dose dependently increased”.
